Test results reported in US10660939B2, “Therapies for obesity, diabetes and related indications” (Palatin Technologies, Inc., priority 2015, dated 2020).
Each block holds one compound with its values, some of them ahead of it.

Experiments:
[1] = biological target: T1, hMC4r (Homo sapiens, UniProt P32245); assay: competitive inhibition binding assay with Eu-NDP-α-MSH (time-resolved fluorometry)
T1 construct: expressed in transfected cells; host or cells: HEK-293
Method: After incubation for 90 minutes at 37° C., the reaction was stopped by filtration over AcroWell 96-well filter plates (Pall Life Sciences). The filter plates were washed 4 times with 200 μL of ice-cold phosphate-buffered saline. DELFIA Enhancement solution (PerkinElmer Life Sciences) was added to each well. […] Each assay was conducted in duplicate and mean values were utilized. Ki values were determined by curve-fitting with Graph-Pad Prism® software using a one-site fixed-slope competition binding model.

[2] = biological target: T1, hMC4r; assay: cAMP accumulation functional assay in HEK-293 cells expressing hMC4r; format: cell-based; details: agonist = 70% or greater intrinsic activity
Method: Accumulation of intracellular cAMP was examined as a measure of the ability of the MC4r peptides to elicit a functional response in HEK-293 cells that express MC4r. Confluent HEK-293 cells that express recombinant hMC4r were detached from culture plates by incubation in enzyme-free cell dissociation buffer. Dispersed cells were suspended in Earle's Balanced Salt Solution containing 10 mM HEPES (pH 7.5), 1 mM MgCl2, 1 mM glutamine, 0.5% albumin and 0.3 mM 3-isobutyl-1-methyl-xanthine (IBMX), a phosphodiesterase inhibitor. […] Cells were exposed for 15 minutes at 37° C. to peptides of the present invention dissolved in DMSO (final DMSO concentration of 1%) at a concentration range of 0.05-5000 nM in a total assay volume of 200 μL. […] Data analysis was performed by nonlinear regression analysis with Graph-Pad Prism® software. The maximum efficacies of the test peptides of the present invention were compared to that achieved by the reference melanocortin agonist NDP-α-MSH.

[3] = biological target: T1, hMC4r; assay: competitive inhibition binding assay with [I125]-NDP-α-MSH, membrane homogenates of HEK-293 cells; details: averaged values, not marked *: [I125]-NDP-α-MSH; read-out: MC4r Ki
Method: Assays were performed in 96 well GF/B Millipore multiscreen filtration plates (MAFB NOB10) pre-coated with 0.5% bovine serum albumin (Fraction V). […] After incubation for 60 minutes at 37° C., the assay mixture was filtered and the membranes washed three times with ice-cold buffer. Filters were dried and counted in a gamma counter for bound radioactivity. […] Maximal specific binding (100%) was defined as the difference in radioactivity (cpm) bound to cell membranes in the absence and presence of 1 μM NDP-α-MSH. […] Each assay was conducted in triplicate and the actual mean values are described, with results less than 0% reported as 0%. Ki values for test peptides of the present invention were determined using Graph-Pad Prism® curve-fitting software.

[4] = diet induced obese rats, GLP-1 infusion and Peptide No. 154 twice daily, body weight and feed intake (Example 11); format: in vivo, rat; details: DIO rats
Method: 11. […] Each treatment group was compared to the vehicle group using t-test, one-way ANOVA or two-way ANOVA followed by Dunnett's multiple comparisons (GraphPad). A p value<0.05 was considered to represent a significant difference.
Individual body weights were measured on study days 1-9. Percent change in body weight is calculating according to this formula: 100*(value-baseline)/baseline, where value is the weight of the animal on study day in question and baseline is the weight of the same animal on study day −1.
On days 1-4, feeds were weighed at 0, and 24 hours after lights off. On days 5-9, feeds were weighed at 0, 2, 6 and 24 hours after lights off.

[5] = DIO mice, single daily subcutaneous bolus dose of Peptide No. 154 (Example 10); format: in vivo, mouse; details: single daily subcutaneous dose of 3 mg/kg, on day 5, ±0.6 SEM
Method: 10. […] By contrast, animals receiving a single daily subcutaneous dose of 3 mg/kg continuously lost weight over 5 days, and reached a maximum weight loss on day 5 of 4.2 g±0.6 SEM compared to baseline (study day 0).

[6] = diet induced obese Sprague-Dawley rats, GLP-1 infusion and Peptide No. 154 b.i.d., fasted glucose and insulin (Example 9); format: in vivo, rat; details: DIO rats, 1.0 mg/kg Peptide No. 154 b.i.d. alone
Method: 9. MC4r 154 was evaluated with GLP-1 to determine effect on body weight and feed intake in diet induced obese Sprague-Dawley rats. Rats were acquired at 17 weeks and pre-conditioned for 5 weeks on high fat diet prior to dosing. No sharp increase in weight was noted, likely due to late onset of the high fat diet. At study day −2, baseline GTT and insulin levels were assessed on 16-hour fasted animals. Animals were then permitted a 2-day recovery period, and on study day 0, animals were randomized into treatment groups by body weight and Alzet continuous infusion pumps containing either vehicle or GLP-1 (for dosing at either 10 or 100 μg/kg/day) were implanted. Beginning on study day 1, body weight and feed weights were taken in the mornings. Beginning on study day 4, twice daily (b.i.d.) subcutaneous dosing of saline was initiated for all groups other than the treatment naïve group to acclimate the animals to handling and subcutaneous dosing. […] Animals were fasted for the 16 hours prior to the GTT.
Data is shown as the percent change from study day −2 baseline test±SEM.
FIG. 4 compares the fasted insulin levels at study day −2 and study day 12, with insulin measured after 16 hour fast and prior to GTT testing. Data is shown as ng/mL insulin±SEM.

[7] = diet induced obese mice, Peptide No. 154 with GLP-1, Alzet pumps (Example 8); format: in vivo, mouse; details: DIO mice, continuous infusion of 30 mg/kg/day; lost weight only for the first two days; ±0.34 SEM
Method: Groups 1, 2 and 4 were provided ad libitum with a 45% high fat rodent diet. Animals in Group 3 were pair-fed to Group 2. The amount of food consumed in Group 2 was the amount of food given to Group 3 in the next 24 hour period. For group 3 (pair-fed group), the pump was implanted 1 day later than other groups to account for pair-feeding. On day −2 and day 6, animals from Groups 1, 2, and 4 were fasted overnight and baseline and terminal glucose tolerance tests (GTT) was conducted. GTT and insulin levels in Group 3 were conducted one day later. Body weight and food intake were measured each day. To conduct the GTT, on study day −2 (−1 for Group 3) (baseline test) and day 6 (7 for Group 3) (termination test), 1 g/kg glucose was orally administered. Glucose levels were taken prior to glucose administration and 15, 30, 60, 90 and 120 minutes post-glucose administration.
Data is expressed as percent change at the termination test, ±standard deviation (SD) from the baseline test. This was calculated as: (AUCday 7−AUCday −2)[…] In FIG. 1, diet induced obese mice were administered MC4r 154 (30 mg/kg/day) either with or without 0.1 mg/kg/day GLP-1, with one group pair fed to the MC4r 154 group but administered only GLP-1 (“Pair-Fed to MC4r 154+GLP-1”).
Data is shown as the average of body weight change in grams±standard error of the mean (SEM) from study day 0.

T1 sequence (P32245 whole entry): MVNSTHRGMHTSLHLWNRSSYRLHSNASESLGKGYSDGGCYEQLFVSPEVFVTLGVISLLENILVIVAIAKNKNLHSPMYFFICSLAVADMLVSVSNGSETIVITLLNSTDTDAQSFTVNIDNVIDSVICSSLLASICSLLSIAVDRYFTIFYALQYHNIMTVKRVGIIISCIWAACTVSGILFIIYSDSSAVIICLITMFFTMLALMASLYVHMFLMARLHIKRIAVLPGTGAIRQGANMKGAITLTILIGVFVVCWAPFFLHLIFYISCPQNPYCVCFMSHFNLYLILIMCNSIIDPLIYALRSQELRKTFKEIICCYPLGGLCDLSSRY

Structure (SMILES): CC(=O)NCC[C@@H]1NC(=O)[C@@H](NC(=O)[C@H](CCCNC(=N)N)NC(C)=O)CC(=O)NCCCC[C@@H](C(N)=O)NC(=O)[C@H](Cc2c[nH]c3ccccc23)NC(=O)[C@H](CCCNC(=N)N)NC(=O)[C@@H](Cc2ccccc2)NC1=O [compound 114, Ac-Arg-cyclo(Asp-Dab(Acetyl)-D-Phe-Arg-Trp-Lys)-NH2]
Ki [1]: 88 nM

Structure (SMILES): CC(=O)N[C@@H](CCCNC(=N)N)C(=O)N[C@H]1CC(=O)NCCCC[C@@H](C(N)=O)NC(=O)[C@H](Cc2c[nH]c3ccccc23)NC(=O)[C@H](CCCNC(=N)N)NC(=O)[C@@H](Cc2ccccc2)NC(=O)[C@H](C(C)C)NC1=O [Peptide No. 16, Ac-Arg-cyclo(Asp-Val-D-Phe-Arg-Trp-Lys)-NH2]
functional status at MC4r (agonist / partial agonist) [2]: partial agonist

Structure (SMILES): CC(=O)N[C@@H](CCCNC(=N)N)C(=O)N[C@H]1CCCC(=O)NCC[C@@H](C(N)=O)NC(=O)[C@H](Cc2c[nH]c3ccccc23)NC(=O)[C@H](CCCNC(=N)N)NC(=O)[C@@H](Cc2ccccc2)NC(=O)[C@H](CCN)NC1=O [compound 127, Ac-Arg-cyclo(hGlu-Dab-D-Phe-Arg-Trp-Dab)-NH2]
functional status at MC4r (agonist / partial agonist) [2]: agonist

Structure (SMILES): CC(=O)N[C@@H](CCCNC(=N)N)C(=O)N[C@H]1CC(=O)NCCCC[C@@H](C(N)=O)NC(=O)[C@H](Cc2c[nH]c3ccccc23)NC(=O)[C@H](CCCNC(=N)N)NC(=O)[C@@H](Cc2ccccc2)NC(=O)[C@H](CCC(N)=O)NC1=O [Peptide No. 32, Ac-Arg-cyclo(Asp-Gln-D-Phe-Arg-Trp-Lys)-NH2]
functional status at MC4r (agonist / partial agonist) [2]: agonist

Structure (SMILES): CC(=O)N[C@@H](CCCNC(=N)N)C(=O)N[C@H]1CCNC(=O)CCC[C@@H](C(N)=O)NC(=O)[C@H](Cc2c[nH]c3ccccc23)NC(=O)[C@H](CCCNC(=N)N)NC(=O)[C@@H](Cc2ccccc2)NC(=O)[C@H](CCN)NC1=O [compound 129, Ac-Arg-cyclo(Dab-Dab-D-Phe-Arg-Trp-hGlu)-NH2]
functional status at MC4r (agonist / partial agonist) [2]: agonist

Structure (SMILES): CC(=O)N[C@@H](CCCNC(=N)N)C(=O)N[C@H]1CC(=O)NCCCC[C@@H](C(=O)O)NC(=O)[C@H](Cc2c[nH]c3ccccc23)NC(=O)[C@H](CCCNC(=N)N)NC(=O)[C@@H](Cc2ccccc2)NC(=O)[C@H](CCN)NC1=O [compound 164, Ac-Arg-cyclo(Asp-Dab-D-Phe-Arg-Trp-Lys)-OH]
Ki [3]: 57 nM

Structure (SMILES): CC(=O)N[C@@H](CCCNC(=N)N)C(=O)N[C@H]1CCCNC(=O)CC[C@@H](C(N)=O)NC(=O)[C@H](Cc2c[nH]c3ccccc23)NC(=O)[C@H](CCCNC(=N)N)NC(=O)[C@@H](Cc2ccccc2)NC(=O)[C@H](CC(N)=O)NC1=O [Peptide No. 154, Ac-Arg-cyclo(Orn-Asn-D-Phe-Arg-Trp-Glu)-NH2]
appetite on day 9 [4]: recovered on day 9
food intake after start of Peptide No. 154 dosing ([4]; Peptide No. 154 s.c. from day 5): decreased starting on day 5
feed intake at 2 and 6 hours post lights off compared with vehicle ([4]; days 5-9): significant decreased feed intakes
body weight compared with vehicle ([4]; subcutaneous dosing twice daily, days 5-10): decreased animal's body weight significantly
maximum weight loss compared to baseline (study day 0) [5]: 4.2 g
decrease in fasted plasma glucose, day -2 to day 12 [6]: most pronounced decrease
maximum weight loss compared to baseline (study day 0) [7]: 1.76 g

Other lines, results leading:

functional status at MC4r (agonist / partial agonist) [2]: agonist
Structure (SMILES): CC(=O)N[C@@H](CCCNC(=N)N)C(=O)N[C@H]1CCNC(=O)CCC[C@@H](C(N)=O)NC(=O)[C@H](Cc2c[nH]c3ccccc23)NC(=O)[C@H](CCCNC(=N)N)NC(=O)[C@@H](Cc2ccccc2)NC(=O)[C@H](Cc2c[nH]cn2)NC1=O [compound 128, Ac-Arg-cyclo(Dab-His-D-Phe-Arg-Trp-hGlu)-NH2]

functional status at MC4r (agonist / partial agonist) [2]: agonist
Structure (SMILES): CC(=O)N[C@@H](CCCNC(=N)N)C(=O)N[C@H]1CC(=O)NCCCC[C@@H](C(N)=O)NC(=O)[C@H](Cc2c[nH]c3ccccc23)NC(=O)[C@H](CCCNC(=N)N)NC(=O)[C@@H](Cc2ccccc2)NC(=O)[C@H](Cc2c[nH]cn2)NC1=O [Peptide No. 1, Ac-Arg-cyclo(Asp-His-D-Phe-Arg-Trp-Lys)-NH2]

functional status at MC4r (agonist / partial agonist) [2]: agonist
Structure (SMILES): CC(=O)N[C@@H](CCCNC(=N)N)C(=O)N[C@H]1CCCC(=O)NCC[C@@H](C(N)=O)NC(=O)[C@H](Cc2c[nH]c3ccccc23)NC(=O)[C@H](CCCNC(=N)N)NC(=O)[C@@H](Cc2ccccc2)NC(=O)[C@H](Cc2c[nH]cn2)NC1=O [compound 126, Ac-Arg-cyclo(hGlu-His-D-Phe-Arg-Trp-Dab)-NH2]

Ki [3]: 4 nM
Structure (SMILES): CC(=O)N[C@@H](CCCNC(=N)N)C(=O)N[C@H]1CC(=O)NCCCC[C@@H](C(N)=O)NC(=O)[C@H](Cc2c[nH]c3ccccc23)NC(=O)[C@H](CCCNC(=N)N)NC(=O)[C@@H](Cc2ccccc2)NC(=O)[C@H](CCN)NC1=O [compound 163, Ac-Arg-cyclo(Asp-Dab-D-Phe-Arg-Trp-Lys)-NH2]
